Measured values: the NIST ThermoML archive (doi:10.1016/j.jct.2019.03.040)

How the values were obtained:
[1] = molar heat capacity at constant pressure; conditions: 101.33 kPa, Liquid, Small sample (50 mg) DSC
[2] = Liquid; for thermal diffusivity: 101.33 kPa, Laser flash apparatus

CCCOC(=O)CCC(C)=O [propyl levulinate]
Conditions	Critical pressure [kPa]	Critical temperature [K]	molar heat capacity at constant pressure [J/K/mol]	thermal diffusivity [m2/s]
[1], 303.04 K	–	–	319.87	–
[1], 303.54 K	–	–	320.34	–
[1], 304.04 K	–	–	320.5	–
[1], 304.54 K	–	–	320.03	–
[1], 305.04 K	–	–	320.5	–
[1], 305.54 K	–	–	320.34	–
[1], 306.04 K	–	–	320.5	–
[1], 306.54 K	–	–	320.19	–
[1], 307.04 K	–	–	320.19	–
[1], 307.54 K	–	–	320.82	–
[1], 308.04 K	–	–	320.82	–
[1], 308.54 K	–	–	321.45	–
[1], 309.04 K	–	–	320.82	–
[1], 309.54 K	–	–	321.14	–
[1], 310.04 K	–	–	321.61	–
[1], 310.54 K	–	–	321.14	–
[1], 311.04 K	–	–	321.29	–
[1], 311.54 K	–	–	321.29	–
[1], 312.04 K	–	–	322.08	–
[1], 312.54 K	–	–	321.45	–
[1], 313.04 K	–	–	322.24	–
[1], 313.54 K	–	–	322.08	–
[1], 314.04 K	–	–	322.24	–
[1], 314.54 K	–	–	322.24	–
[1], 315.04 K	–	–	322.56	–
[1], 315.54 K	–	–	322.88	–
[1], 316.04 K	–	–	322.72	–
[1], 316.54 K	–	–	322.24	–
[1], 317.04 K	–	–	322.56	–
[1], 317.54 K	–	–	323.03	–
[1], 318.04 K	–	–	323.98	–
[1], 318.54 K	–	–	323.19	–
[1], 319.04 K	–	–	323.67	–
[1], 319.54 K	–	–	324.14	–
[1], 320.04 K	–	–	323.35	–
[1], 320.54 K	–	–	323.83	–
[1], 321.04 K	–	–	323.67	–
[1], 321.54 K	–	–	323.83	–
[1], 322.04 K	–	–	323.83	–
[1], 322.54 K	–	–	324.62	–
[1], 323.04 K	–	–	324.46	–
[1], 323.54 K	–	–	324.46	–
[1], 324.04 K	–	–	324.3	–
[1], 324.54 K	–	–	324.93	–
[1], 325.04 K	–	–	324.93	–
[1], 325.54 K	–	–	325.25	–
[1], 326.04 K	–	–	325.57	–
[1], 326.54 K	–	–	325.72	–
[1], 327.04 K	–	–	325.88	–
[1], 327.54 K	–	–	325.72	–
[1], 328.04 K	–	–	326.04	–
[1], 328.54 K	–	–	326.67	–
[1], 329.04 K	–	–	325.72	–
[1], 329.54 K	–	–	326.51	–
[1], 330.04 K	–	–	326.2	–
[1], 330.54 K	–	–	326.83	–
[1], 331.04 K	–	–	326.83	–
[1], 331.54 K	–	–	327.15	–
[1], 332.04 K	–	–	326.83	–
[1], 332.54 K	–	–	327.15	–
[1], 333.04 K	–	–	326.83	–
[1], 333.54 K	–	–	327.31	–
[1], 334.04 K	–	–	327.62	–
[1], 334.54 K	–	–	328.1	–
[1], 335.04 K	–	–	328.41	–
[1], 335.54 K	–	–	328.73	–
[1], 336.04 K	–	–	328.41	–
[1], 336.54 K	–	–	328.25	–
[1], 337.04 K	–	–	328.57	–
[1], 337.54 K	–	–	328.57	–
[1], 338.04 K	–	–	329.2	–
[1], 338.54 K	–	–	328.89	–
[1], 339.04 K	–	–	329.05	–
[1], 339.54 K	–	–	329.2	–
[1], 340.04 K	–	–	328.89	–
[1], 340.54 K	–	–	329.36	–
[1], 341.04 K	–	–	329.84	–
[1], 341.54 K	–	–	329.99	–
[1], 342.04 K	–	–	329.68	–
[1], 342.54 K	–	–	329.36	–
[1], 343.04 K	–	–	330.31	–
[1], 343.54 K	–	–	330.31	–
[1], 344.04 K	–	–	330.15	–
[1], 344.54 K	–	–	330.15	–
[1], 345.04 K	–	–	330.63	–
[1], 345.54 K	–	–	331.1	–
[1], 346.04 K	–	–	331.1	–
[1], 346.54 K	–	–	330.94	–
[1], 347.04 K	–	–	331.58	–
[1], 347.54 K	–	–	331.58	–
[1], 348.04 K	–	–	331.73	–
[1], 348.54 K	–	–	332.05	–
[1], 349.04 K	–	–	331.89	–
[1], 349.54 K	–	–	332.05	–
[1], 350.04 K	–	–	332.37	–
[1], 350.54 K	–	–	332.68	–
[1], 351.04 K	–	–	333.16	–
[1], 351.54 K	–	–	333	–
[1], 352.04 K	–	–	333	–
[1], 352.54 K	–	–	333.16	–
[1], 353.04 K	–	–	333.95	–
[1], 353.54 K	–	–	333.47	–
[1], 354.04 K	–	–	334.27	–
[1], 354.54 K	–	–	334.27	–
[1], 355.04 K	–	–	334.42	–
[1], 355.54 K	–	–	334.74	–
[1], 356.04 K	–	–	334.27	–
[1], 356.54 K	–	–	334.42	–
[1], 357.04 K	–	–	334.58	–
[1], 357.54 K	–	–	334.58	–
[1], 358.04 K	–	–	335.22	–
[1], 358.54 K	–	–	335.37	–
[1], 359.04 K	–	–	335.85	–
[1], 359.54 K	–	–	335.85	–
[1], 360.04 K	–	–	335.53	–
[1], 360.54 K	–	–	336.01	–
[1], 361.04 K	–	–	336.32	–
[1], 361.54 K	–	–	336.64	–
[1], 362.04 K	–	–	336.16	–
[1], 362.54 K	–	–	336.01	–
[1], 363.04 K	–	–	336.16	–
[1], 363.54 K	–	–	336.64	–
[1], 364.04 K	–	–	337.11	–
[1], 364.54 K	–	–	337.11	–
[1], 365.04 K	–	–	337.11	–
[1], 365.54 K	–	–	337.11	–
[1], 366.04 K	–	–	337.9	–
[1], 366.54 K	–	–	337.9	–
[1], 367.04 K	–	–	337.59	–
[1], 367.54 K	–	–	337.59	–
[1], 368.04 K	–	–	338.06	–
[1], 368.54 K	–	–	338.06	–
[1], 369.04 K	–	–	337.75	–
[1], 369.54 K	–	–	337.9	–
[1], 370.04 K	–	–	338.22	–
[1], 370.54 K	–	–	338.06	–
[1], 371.04 K	–	–	338.54	–
[1], 371.54 K	–	–	338.54	–
[1], 372.04 K	–	–	338.7	–
[1], 372.54 K	–	–	339.49	–
[1], 373.04 K	–	–	339.33	–
[1], 373.54 K	–	–	339.49	–
[1], 374.04 K	–	–	340.12	–
[1], 374.54 K	–	–	340.75	–
[2], 303.15 K	–	–	–	7.82e-08
[2], 313.15 K	–	–	–	7.73e-08
[2], 323.15 K	–	–	–	7.62e-08
[2], 333.15 K	–	–	–	7.53e-08
[2], 343.15 K	–	–	–	7.37e-08
[2], 353.15 K	–	–	–	7.26e-08
[2], 363.15 K	–	–	–	7.22e-08
[2], Resistive pulse heating	2670	674	–	–
